Tests used:
Assay in all cases: drug sensitivity score (DSS3, normalised partial AUC of % inhibition dose-response) (DSS (score)); higher = more sensitive (stronger inhibition of viability); extreme values may be limits of the assay
[1] = system: FMOC28 (patient-derived low-grade serous ovarian cancer cells); conditions: 72 h; library: FO5A; assay format: 2D, 384-well, CellTiter-Glo
Outline: (§1)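 The drug sensitivity score is calculated as a partial area under the percent-inhibition dose-response curve, divided by the log of the upper asymptote; higher scores mean more sensitive. For this score, early-passage (under 10) patient-derived ovarian cancer cells were exposed on 384-well flat clear-bottom plates to compounds at five concentrations across a 10,000-fold range for 72 h at 37 °C, 5% CO2. Viability was read with CellTiter-Glo and processed in Breeze.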

[2] = system: FMOC17 (patient-derived low-grade serous ovarian cancer cells); conditions: 72 h; library: FO5A; assay format: 2D, 384-well, CellTiter-Glo
Outline: as §1

[3] = system: FMOC06 (patient-derived mucinous ovarian cancer cells); conditions: 72 h; library: FO5A; assay format: 2D, 384-well, CellTiter-Glo
Outline: as §1

[4] = system: FMOC02_1 (patient-derived low-grade serous ovarian cancer cells); conditions: 72 h; library: FO5A; assay format: 2D, 384-well, CellTiter-Glo
Outline: as §1

[5] = system: FMOC02_2 (patient-derived low-grade serous ovarian cancer cells); conditions: 72 h; library: FO5A; assay format: 2D, 384-well, CellTiter-Glo
Outline: as §1

[6] = system: FMOC03 (patient-derived mucinous ovarian cancer cells); conditions: 72 h; library: FO5A; assay format: 2D, 384-well, CellTiter-Glo
Outline: as §1

[7] = system: FMOC27 (patient-derived low-grade serous ovarian cancer cells); conditions: 72 h; library: FO5A; assay format: 2D, 384-well, CellTiter-Glo
Outline: as §1

[8] = system: FMOC02_3 (patient-derived low-grade serous ovarian cancer cells); conditions: 72 h; library: FO5A; assay format: 2D, 384-well, CellTiter-Glo
Outline: as §1

[9] = system: FMOC09 (patient-derived high-grade serous ovarian cancer cells); conditions: 72 h; library: FO5A; assay format: 2D, 384-well, CellTiter-Glo
Outline: as §1

[10] = system: FMOC04 (patient-derived high-grade serous ovarian cancer cells); conditions: 72 h; library: FO5A; assay format: 2D, 384-well, CellTiter-Glo
Outline: as §1

[11] = system: FMOC25_2 (patient-derived low-grade serous ovarian cancer cells); conditions: 72 h; library: FO5A; assay format: 2D, 384-well, CellTiter-Glo
Outline: as §1

[12] = system: FMOC25_1 (patient-derived low-grade serous ovarian cancer cells); conditions: 72 h; library: FO4B; assay format: 2D, 384-well, CellTiter-Glo
Outline: as §1

[13] = system: FMOC11 (patient-derived high-grade serous ovarian cancer cells); conditions: 72 h; library: FO5A; assay format: 2D, 384-well, CellTiter-Glo
Outline: as §1

[14] = system: FMOC24 (patient-derived high-grade serous ovarian cancer cells); conditions: 72 h; library: FO5A; assay format: 2D, 384-well, CellTiter-Glo
Outline: as §1

[15] = system: FMOC22 (patient-derived mucinous ovarian cancer cells); conditions: 72 h; library: FO5A; assay format: 2D, 384-well, CellTiter-Glo
Outline: as §1

[16] = system: FMOC14 (patient-derived high-grade serous ovarian cancer cells); conditions: 72 h; library: FO5A; assay format: 2D, 384-well, CellTiter-Glo
Outline: as §1

Row | Structure (SMILES) | drug sensitivity score [1] | drug sensitivity score [2] | drug sensitivity score [3] | drug sensitivity score [4] | drug sensitivity score [5] | drug sensitivity score [6] | drug sensitivity score [7] | drug sensitivity score [8] | drug sensitivity score [9] | drug sensitivity score [10] | drug sensitivity score [11] | drug sensitivity score [12] | drug sensitivity score [13] | drug sensitivity score [14] | drug sensitivity score [15] | drug sensitivity score [16]
1 | CC(O)(CS(=O)(=O)c1ccc(F)cc1)C(=O)Nc1ccc(C#N)c(C(F)(F)F)c1 (stereo not drawn) [Bicalutamide] | 0 | 0.9 | 1.1 | 0.1 | 0 | 0 | 0 | 0 | 0 | 0 | 0 | 0 | 0 | 0.85 | 0 | 0
2 | Nc1nc(NC2CC2)cc(-c2cccc(Cl)c2Cl)n1 [TH588] | 5.7 | 3 | 0 | 3.4 | 5.2 | 0.4 | 2.3 | 5.4 | 1.2 | 1.15 | 2.2 | 2.1 | 2.2 | 0.2 | 2.3 | 0.2
3 | Cc1cc([C@@H](C)Nc2ccccc2C(=O)O)c2nc(N3CCOCC3)cc(=O)n2c1 [AZD-6482] | 0 | 2.8 | 0 | 0 | 0.6 | 0.5 | 0 | 2.3 | 0.1 | 0 | 0.8 | 2.5 | 0.9 | 0.5 | 0 | 0.4
4 | COc1cc2nccc(Oc3ccc(NC(=O)NC4CC4)c(Cl)c3)c2cc1C(N)=O [Lenvatinib] | 0 | 0 | 0 | 0 | 0 | 0 | 0 | 0 | 0 | 0 | 0.1 | 0 | 0 | 0 | 0 | 0
5 | C[C@@H]1CCN(C(=O)CC#N)C[C@@H]1N(C)c1ncnc2[nH]ccc12 [Tofacitinib] | 0.7 | 0 | 0.7 | 0 | 0.7 | 0 | 0 | 0.1 | 0 | 0 | 0.3 | 0 | 0 | 0.5 | 0 | 0
6 | COc1cc([C@@H]2c3cc4c(cc3[C@@H](O[C@@H]3O[C@@H]5CO[C@@H](c6cccs6)O[C@H]5[C@H](O)[C@H]3O)[C@H]3COC(=O)[C@H]23)OCO4)cc(OC)c1O [Teniposide] | 0 | 0 | 0 | 0 | 0 | 0.5 | 0 | 0 | 0 | 0 | 0 | 6.4 | 0 | 2.75 | 2.5 | 0
7 | Cn1ncnc1[C@H]1c2n[nH]c(=O)c3cc(F)cc(c23)N[C@@H]1c1ccc(F)cc1 [Talazoparib] | 0.7 | 2.7 | 2.2 | 7 | 2.3 | 0.1 | 5.5 | 5.7 | 0.9 | 0.25 | 5.7 | 4.8 | 1.4 | 4.1 | 3.5 | 0.7
8 | CC/C(=C(\c1ccccc1)c1ccc(OCCN(C)C)cc1)c1ccccc1 [Tamoxifen] | 2.6 | 3 | 5.2 | 6.5 | 3.8 | 4.3 | 3.1 | 4.8 | 1.6 | 3.75 | 2.4 | 2.3 | 3.9 | 7.35 | 3.2 | 4
9 | CC(C)Cn1cnc2c(N)nc3ccccc3c21 [Imiquimod] | 0.9 | 0 | 0.5 | 0 | 0 | 0 | 0 | 0 | 0 | 0 | 0 | 0 | 0 | 0 | 0 | 0
10 | CCc1c(C(=O)C(N)=O)c2c(OCC(=O)O)cccc2n1Cc1ccccc1 [Varespladib] | 0 | 0 | 0 | 0 | 0 | 0 | 0 | 0 | 0 | 0 | 0 | 0 | 0 | 0.1 | 0 | 0
11 | NC(=O)c1cccc2cn(-c3ccc([C@@H]4CCCNC4)cc3)nc12 [Niraparib] | 5.4 | 0 | 1.5 | 4.2 | 2.6 | 0 | 3.2 | 6.6 | 1.6 | 0.55 | 4.8 | 1.5 | 1.4 | 5.55 | 1.9 | 0
12 | CCN(CC)CCN(Cc1ccc(-c2ccc(C(F)(F)F)cc2)cc1)C(=O)Cn1c(SCc2ccc(F)cc2)nc(=O)c2c1CCC2 [Darapladib] | 1.2 | 0 | 0 | 0 | 0 | 0 | 0 | 1.6 | 0 | 0.25 | 0 | 0.1 | 0.1 | 4.2 | 0 | 1.3
13 | C=C(c1ccc(C(=O)O)cc1)c1cc2c(cc1C)C(C)(C)CCC2(C)C [Bexarotene] | 5.3 | 0.1 | 0 | 0 | 6 | 1.7 | 1.5 | 4.3 | 1.8 | 0 | 0 | 0.3 | 1.2 | 0.9 | 1.1 | 0
14 | Nc1cc(F)ccc1NC(=O)/C=C/c1cnn(C/C=C/c2ccccc2)c1 [RGFP966] | 4.6 | 0.9 | 2 | 3.1 | 2.9 | 2.9 | 0.6 | 3.5 | 0 | 0.6 | 2.5 | 0 | 3.2 | 2.9 | 1.4 | 1.9
15 | CC(C)N(C[C@H]1O[C@@H](n2cnc3c(N)ncnc32)[C@H](O)[C@@H]1O)[C@H]1C[C@@H](CCc2nc3cc(C(C)(C)C)ccc3[nH]2)C1 [Pinometostat] | 2.1 | 0 | 0 | 0 | 0 | 0 | 0 | 0 | 0 | 0 | 0.2 | 0 | 0 | 0 | 0 | 0
16 | FC(F)(F)c1ccc(CNc2ccc(Cc3c[nH]c4ncc(Cl)cc34)cn2)cn1 [Pexidartinib] | 0.1 | 1.4 | 0.9 | 3.9 | 2.5 | 0 | 0 | 3.1 | 4.1 | 0.1 | 0 | 1.6 | 2.6 | 1.3 | 0.3 | 0
17 | Cc1cn(-c2cc(NC(=O)c3ccc(C)c(Nc4nccc(-c5cccnc5)n4)c3)cc(C(F)(F)F)c2)cn1 [Nilotinib] | 5.6 | 2.4 | 3.4 | 3 | 1.3 | 3.5 | 2.3 | 0 | 0.7 | 0 | 1.5 | 3.4 | 4.6 | 3.7 | 1 | 0.9
18 | COc1cc(OC2CCN(C)CC2)ccc1Nc1ncc2c(n1)n(C1CCCC1)c(=O)n2C [AZ 3146] | 2.3 | 4.7 | 2.9 | 5.2 | 5.2 | 0.7 | 4.4 | 9 | 1.1 | 1.3 | 6 | 3.7 | 1.3 | 6.25 | 0.8 | 0.9
19 | CCN(CC)CCNC(=O)c1c(C)[nH]c(/C=C2\C(=O)Nc3ccc(F)cc32)c1C [Sunitinib] | 0 | 0.1 | 0 | 2.3 | 0.9 | 0 | 0 | 0.6 | 0 | 0 | 0.5 | 0 | 0 | 0 | 0 | 0
20 | CNC(=O)[C@@H](NC(=O)[C@H](CC(C)C)[C@H](O)C(=O)NO)C(C)(C)C [Marimastat] | 0 | 0 | 0 | 0.9 | 0 | 0 | 0 | 0 | 0.1 | 0 | 3.6 | 0.6 | 0.4 | 0 | 0 | 0
21 | Cc1ncc(Cl)cc1NCc1ccc(C(=O)N[C@@H](CC2CCCC2)C(=O)NC2CC2)s1 | 0 | 0 | 0.2 | 0 | 0 | 0 | 1.5 | 7.1 | 0 | 0 | 0 | 0 | 0 | 2.05 | 0.1 | 0
22 | Cn1ncc(Cl)c1-c1cc(C(=O)N[C@H](CN)Cc2cccc(F)c2)sc1Cl [Afuresertib] | 3.8 | 3 | 2.9 | 4.7 | 6.6 | 0 | 5.4 | 4.4 | 1 | 1.65 | 4.3 | 2.9 | 0.2 | 1.3 | 0 | 3.2
23 | Cc1ccc(NC(=O)c2ccc(CN3CC[C@H](N(C)C)C3)c(C(F)(F)F)c2)cc1Nc1nccc(-c2cncnc2)n1 [Bafetinib] | 0.1 | 0 | 0 | 0.2 | 0 | 0 | 0 | 0.1 | 0 | 0 | 0 | 0 | 0 | 0 | 0 | 0

Source: the supplement of paper PMC9938120
